Measured values published in patent publication US8309718B2, “4-pyrazolyl-N-arylpyrimidin-2-amines and 4-pyrazolyl-N-heteroarylpyrimidin-2-amines as janus kinase inhibitors” (Incyte Corporation, priority 2007, dated 2012).

molecular target: T1, human JAK2 (Homo sapiens, UniProt O60674); experiment: In vitro JAK kinase assay (HTRF, phosphorylation of biotinylated peptide); type: biochemical; conditions: catalytic domain a.a. 828-1132, 30 μM ATP, 500 nM peptide, room temperature 1 hr; read-out: JAK-2 IC50
T1 construct: JAK2 (a.a. 828-1132); His tag (N); made in house; host or cells: insect cells (baculovirus)
T1 sequence (O60674 828-1132): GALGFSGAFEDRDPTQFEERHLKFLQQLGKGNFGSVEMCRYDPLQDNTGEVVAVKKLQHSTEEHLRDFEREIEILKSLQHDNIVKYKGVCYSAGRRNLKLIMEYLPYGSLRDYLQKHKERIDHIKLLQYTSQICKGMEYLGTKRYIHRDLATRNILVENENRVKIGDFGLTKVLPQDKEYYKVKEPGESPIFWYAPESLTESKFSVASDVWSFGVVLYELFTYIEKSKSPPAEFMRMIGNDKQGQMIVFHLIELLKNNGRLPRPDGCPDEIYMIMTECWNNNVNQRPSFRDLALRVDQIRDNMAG
Experimental: Compounds herein were tested for inhibitory activity of JAK targets according to the following in vitro assay described in Park et al, Analytical Biochemistry 1999, 269, 94-104. The catalytic domains of human JAK1 (a.a. 837-1142), JAK2 (a.a. 828-1132) and JAK3 (a.a. 781-1124) with an N-terminal His tag were expressed using baculovirus in insect cells and purified. The catalytic activity of JAK1, JAK2 or JAK3 was assayed by measuring the phosphorylation of a biotinylated peptide. The phosphorylated peptide was detected by homogenous time resolved fluorescence (HTRF). IC50s of compounds were measured for each kinase in the reactions that contain the enzyme, ATP and 500 nM peptide in 50 mM Tris (pH 7.8) buffer with 100 mM NaCl, 5 mM DTT, and 0.1 mg/mL (0.01%) BSA. The ATP concentration in the reactions was 90 μM for JAK1, 30 μM for Jak2 and 3 μM for JAK3. Reactions were carried out at room temperature for 1 hr and then stopped with 20 μL 45 mM EDTA, 300 nM SA-APC, 6 nM Eu-Py20 in assay buffer (Perkin Elmer, Boston, Mass.). Binding to the Europium labeled antibody took place for 40 minutes and HTRF signal was measured on a Fusion plate reader (Perkin Elmer, Boston, Mass.). Certain of the above compounds were tested according to this assay.

| Structure (SMILES) | IC50 [nM] |
| --- | --- |
| COCC(C)NC(=O)c1ccc(Nc2ncc(C)c(-c3cnn(C(CC#N)C4CCCC4)c3)n2)cc1 (mixture of isomers) [Example 87, 4-(4-(1-(2-cyano-1-cyclopentylethyl)-1H-pyrazol-4-yl)-5-methylpyrimidin-2-ylamino)-N-(1-methoxypropan-2-yl)benzamide] | < 100 |
| N#CCC(C1CCCC1)n1cc(-c2ccnc(Nc3cccc(C(=O)N4CC[C@@H](O)C4)c3)n2)cn1 (mixture of isomers) [Example 141, 3-cyclopentyl-3-(4-(2-(3-((R)-3-hydroxypyrrolidine-1-carbonyl)phenylamino)pyrimidin-4-yl)-1H-pyrazol-1-yl)propanenitrile] | < 100 |
| COc1cccc([C@@H](C)NC(=O)c2cccc(Nc3nccc(-c4cnn(C(CC#N)C5CCCC5)c4)n3)c2)c1 (mixture of isomers) [Example 145, 3-(4-(1-(2-cyano-1-cyclopentylethyl)-1H-pyrazol-4-yl)pyrimidin-2-ylamino)-N—((R)-1-(3-methoxyphenyl)ethyl)benzamide] | < 100 |
| N#CCC(C1CCCC1)n1cc(-c2ccnc(Nc3cccc(C(=O)N4CCC(c5cccc(F)c5)C4)c3)n2)cn1 (mixture of isomers) [Example 157, 3-cyclopentyl-3-(4-(2-(3-(3-(3-fluorophenyl)pyrrolidine-1-carbonyl)phenylamino)pyrimidin-4-yl)-1H-pyrazol-1-yl)propanenitrile] | < 100 |
| COC[C@H]1CCCN1C(=O)c1cccc(Nc2nccc(-c3cnn(C(CC#N)C4CCCC4)c3)n2)c1 (mixture of isomers) [Example 162, 3-cyclopentyl-3-(4-(2-(3-((R)-2-(methoxymethyl)pyrrolidine-1-carbonyl)phenylamino)pyrimidin-4-yl)-1H-pyrazol-1-yl)propanenitrile] | < 100 |
| N#CCC(C1CCCC1)n1cc(-c2ccnc(Nc3cccc(C(=O)N[C@H]4CCN(Cc5ccccc5)C4)c3)n2)cn1 (mixture of isomers) [Example 167, N—((S)-1-benzylpyrrolidin-3-yl)-3-(4-(1-(2-cyano-1-cyclopentylethyl)-1H-pyrazol-4-yl)pyrimidin-2-ylamino)benzamide] | < 100 |
| COC[C@H]1CCCN1CC(=O)Nc1ccc(Nc2nccc(-c3cnn(C(CC#N)C4CCCC4)c3)n2)cc1 (mixture of isomers) [Example 209, N-(4-(4-(1-(2-cyano-1-cyclopentylethyl)-1H-pyrazol-4-yl)pyrimidin-2-ylamino)phenyl)-2-((R)-2-(methoxymethyl)pyrrolidin-1-yl)acetamide] | < 100 |
| CC1(C)CCOC12CCN(C(=O)c1ccc(Nc3nccc(-c4cnn(C(CC#N)C5CCCC5)c4)n3)cc1)C2 (mixture of isomers) [Example 220, 3-cyclopentyl-3-(4-(2-(4-(4,4-dimethyl-1-oxa-7-azaspiro[4.4]nonane-7-carbonyl)phenylamino)pyrimidin-4-yl)-1H-pyrazol-1-yl)propanenitrile] | < 100 |
| N#CCC(C1CCCC1)n1cc(-c2ccnc(Nc3ccc(C(=O)N4CC[C@H](C#N)C4)cc3)n2)cn1 (mixture of isomers) [Example 225, (3S)-1-(4-(4-(1-(2-cyano-1-cyclopentylethyl)-1H-pyrazol-4-yl)pyrimidin-2-ylamino)benzoyl)pyrrolidine-3-carbonitrile] | < 100 |
| CO[C@H]1CCN(C(=O)c2ccc(Nc3nccc(-c4cnn(C(CC#N)C5CCCC5)c4)n3)cc2)C1 (mixture of isomers) [Example 226, 3-cyclopentyl-3-(4-(2-(4-((S)-3-methoxypyrrolidine-1-carbonyl)phenylamino)pyrimidin-4-yl)-1H-pyrazol-1-yl)propanenitrile] | < 100 |
| CN(C)C1CCN(C(=O)c2ccc(Nc3nccc(-c4cnn(C(CC#N)C5CCCC5)c4)n3)cc2)C1 (mixture of isomers) [Example 230, 3-cyclopentyl-3-(4-(2-(4-(3-(dimethylamino)pyrrolidine-1-carbonyl)phenylamino)pyrimidin-4-yl)-1H-pyrazol-1-yl)propanenitrile] | < 100 |
| N#CCC(C1CCCC1)n1cc(-c2ccnc(Nc3ccc(C(=O)NC4CCN(c5ccccn5)C4)cc3)n2)cn1 (mixture of isomers) [Example 232, 4-(4-(1-(2-cyano-1-cyclopentylethyl)-1H-pyrazol-4-yl)pyrimidin-2-ylamino)-N-(1-(pyridin-2-yl)pyrrolidin-3-yl)benzamide] | < 100 |
| N#CCC(C1CCCC1)n1cc(-c2ccnc(Nc3ccc(C(=O)N4CCC(Oc5ccccn5)C4)cc3)n2)cn1 (mixture of isomers) [Example 233, 3-cyclopentyl-3-(4-(2-(4-(3-(pyridin-2-yloxy)pyrrolidine-1-carbonyl)phenylamino)pyrimidin-4-yl)-1H-pyrazol-1-yl)propanenitrile] | < 100 |
| CC[C@H](NC(=O)c1ccc(Nc2nccc(-c3cnn(C(CC#N)C4CCCC4)c3)n2)cc1)C(=O)N(C)C (mixture of isomers) [Example 235, 4-(4-(1-(2-cyano-1-cyclopentylethyl)-1H-pyrazol-4-yl)pyrimidin-2-ylamino)-N—((S)-1-(dimethylamino)-1-oxobutan-2-yl)benzamide] | < 100 |
| CO[C@H]1CCN(C(=O)c2ccc(Nc3nccc(-c4cnn(C(CC#N)C5CC5)c4)n3)cc2)C1 (mixture of isomers) [Example 265, 3-cyclopropyl-3-(4-(2-(4-((S)-3-methoxypyrrolidine-1-carbonyl)phenylamino)pyrimidin-4-yl)-1H-pyrazol-1-yl)propanenitrile] | < 100 |
| N#CCC(C1CC1)n1cc(-c2ccnc(Nc3ccc(C(=O)N4CC[C@@H](O)C4)cc3)n2)cn1 (mixture of isomers) [Example 266, 3-cyclopropyl-3-(4-(2-(4-((R)-3-hydroxypyrrolidine-1-carbonyl)phenylamino)pyrimidin-4-yl)-1H-pyrazol-1-yl)propanenitrile] | < 100 |

Next, values leading:

| IC50 [nM] | Structure (SMILES) |
| --- | --- |
| < 100 | COCC(C)NC(=O)c1cccc(Nc2nccc(-c3cnn(C(CC#N)C4CCCC4)c3)n2)c1 (mixture of isomers) [Example 113, 3-(4-(1-(2-cyano-1-cyclopentylethyl)-1H-pyrazol-4-yl)pyrimidin-2-ylamino)-N-(1-methoxypropan-2-yl)benzamide] |
| < 100 | N#CCC(C1CCCC1)n1cc(-c2ccnc(Nc3ccc(C(=O)N4CC[C@@H](O)C4)cc3)n2)cn1 (mixture of isomers) [Example 127, 3-cyclopentyl-3-(4-(2-(4-((R)-3-hydroxypyrrolidine-1-carbonyl)phenylamino)pyrimidin-4-yl)-1H-pyrazol-1-yl)propanenitrile] |
| < 100 | N#CCC(C1CCCC1)n1cc(-c2ccnc(Nc3cccc(C(=O)N4CCC(c5ccccn5)C4)c3)n2)cn1 (mixture of isomers) [Example 152, 3-cyclopentyl-3-(4-(2-(3-(3-(pyridin-2-yl)pyrrolidine-1-carbonyl)phenylamino)pyrimidin-4-yl)-1H-pyrazol-1-yl)propanenitrile] |
| < 100 | CC(NC(=O)c1cccc(Nc2nccc(-c3cnn(C(CC#N)C4CCCC4)c3)n2)c1)c1ccccn1 (mixture of isomers) [Example 156, 3-(4-(1-(2-cyano-1-cyclopentylethyl)-1H-pyrazol-4-yl)pyrimidin-2-ylamino)-N-(1-(pyridin-2-yl)ethyl)benzamide] |
| < 100 | CC(=O)N[C@@H]1CCN(C(=O)c2cccc(Nc3nccc(-c4cnn(C(CC#N)C5CCCC5)c4)n3)c2)C1 (mixture of isomers) [Example 158, N-((3R)-1-(3-(4-(1-(2-cyano-1-cyclopentylethyl)-1H-pyrazol-4-yl)pyrimidin-2-ylamino)benzoyl)pyrrolidin-3-yl)acetamide] |
| < 100 | COCC(C)NCC(=O)Nc1ccc(Nc2nccc(-c3cnn(C(CC#N)C4CCCC4)c3)n2)cc1 (mixture of isomers) [Example 211, N-(4-(4-(1-(2-cyano-1-cyclopentylethyl)-1H-pyrazol-4-yl)pyrimidin-2-ylamino)phenyl)-2-(1-methoxypropan-2-ylamino)acetamide] |
| < 100 | N#CCC(C1CCCC1)n1cc(-c2ccnc(Nc3ccc(C(=O)N4CC[C@H](F)C4)cc3)n2)cn1 (mixture of isomers) [Example 229, 3-cyclopentyl-3-(4-(2-(4-((S)-3-fluoropyrrolidine-1-carbonyl)phenylamino)pyrimidin-4-yl)-1H-pyrazol-1-yl)propanenitrile] |
| < 100 | N#CCC(C1CCCC1)n1cc(-c2ccnc(Nc3cccc(NC(=O)CN4CC[C@@H](O)C4)c3)n2)cn1 (mixture of isomers) [Example 237, N-(3-(4-(1-(2-cyano-1-cyclopentylethyl)-1H-pyrazol-4-yl)pyrimidin-2-ylamino)phenyl)-2-((R)-3-hydroxypyrrolidin-1-yl)acetamide] |
| < 100 | N#CCC(C1CC1)n1cc(-c2ccnc(Nc3ccc(C(=O)N4CC[C@@H](C#N)C4)cc3)n2)cn1 (mixture of isomers) [Example 264, (3R)-1-(4-(4-(1-(2-cyano-1-cyclopropylethyl)-1H-pyrazol-4-yl)pyrimidin-2-ylamino)benzoyl)pyrrolidine-3-carbonitrile] |
